From ChEMBL document CHEMBL4609996, “Discovery of a novel 2,3-dimethylimidazo[1,2-a]pyrazine-6-carboxamide M4 positive allosteric modulator (PAM) chemotype” (Bioorg Med Chem Lett, 2020)

Experiments:
[1] = Unbound fraction in rat plasma; assay type: ADME, cell-free
[2] = Unbound fraction in human plasma; assay type: ADME, cell-free
[3] = Unbound fraction in rat brain; assay type: ADME, tissue-based
[4] = Brain to plasma permeability coefficient, Kp of the compound in rat; assay type: ADME, cell-free
[5] = Unbound brain-to-plasma concentration ratio in rat; assay type: ADME, cell-free; conditions: read-out: K(p,uu,brain)
[6] = Hepatic clearance in rat; assay type: ADME; conditions: in vivo
[7] = Hepatic clearance in human; assay type: ADME
[8] = target: T1, Muscarinic acetylcholine receptor M4 (Homo sapiens, UniProt P08173); experiment: Positive allosteric modulation of human muscarinic M4 receptor expressed in CHO cells co-expressing Gqi5 assessed as increase in acetylcholine-induced calcium mobilization; assay type: functional, cell-based
T1 sequence (P08173 whole entry): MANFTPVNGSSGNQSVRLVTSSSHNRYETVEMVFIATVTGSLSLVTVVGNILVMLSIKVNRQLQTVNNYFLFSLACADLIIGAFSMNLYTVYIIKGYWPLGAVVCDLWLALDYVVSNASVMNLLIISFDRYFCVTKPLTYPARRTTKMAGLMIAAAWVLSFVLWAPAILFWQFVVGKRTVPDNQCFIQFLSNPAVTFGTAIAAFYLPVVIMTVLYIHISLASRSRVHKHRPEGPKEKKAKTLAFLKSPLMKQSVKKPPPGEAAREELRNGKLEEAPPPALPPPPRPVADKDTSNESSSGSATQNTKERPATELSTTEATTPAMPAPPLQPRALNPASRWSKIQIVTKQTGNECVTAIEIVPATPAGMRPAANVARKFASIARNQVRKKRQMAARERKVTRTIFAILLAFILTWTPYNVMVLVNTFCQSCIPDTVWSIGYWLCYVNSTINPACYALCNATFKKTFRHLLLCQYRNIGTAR

[9] = target: T2, Muscarinic acetylcholine receptor M4 (Rattus norvegicus, UniProt P08485); experiment: Positive allosteric modulation of rat muscarinic M4 receptor
T2 sequence (P08485 whole entry): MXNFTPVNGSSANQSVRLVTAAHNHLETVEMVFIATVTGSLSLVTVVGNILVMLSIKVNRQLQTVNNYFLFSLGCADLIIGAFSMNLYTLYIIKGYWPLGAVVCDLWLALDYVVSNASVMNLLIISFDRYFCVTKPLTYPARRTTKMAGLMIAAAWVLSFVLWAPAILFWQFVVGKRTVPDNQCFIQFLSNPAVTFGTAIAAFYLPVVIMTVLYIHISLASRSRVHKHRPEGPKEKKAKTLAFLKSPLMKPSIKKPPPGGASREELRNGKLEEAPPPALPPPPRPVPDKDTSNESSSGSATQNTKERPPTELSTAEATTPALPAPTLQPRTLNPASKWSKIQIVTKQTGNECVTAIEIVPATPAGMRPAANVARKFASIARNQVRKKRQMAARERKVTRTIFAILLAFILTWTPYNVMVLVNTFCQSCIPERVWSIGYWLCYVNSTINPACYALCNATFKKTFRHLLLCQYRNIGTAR

[10] = Intrinsic clearance in rat microsomes; assay type: ADME, Microsome
[11] = Intrinsic clearance in human microsomes; assay type: ADME, Microsome

Q: With Cc1c2cc(C(=O)NC3CN(c4cc(Cl)ncc4Cl)C3)ccc2nn1C as the compound, how does the fraction unbound [1] read?
A: 0.042

Q: And the fraction unbound [2]?
A: 0.043

Q: What about the fraction unbound [3] of the same compound?
A: 0.032

Q: What about the Kp [4] of the same compound?
A: 0.05

Q: What about the Kp uu [5] of the same compound?
A: 0.04

Q: What about the CLH [6] of the same compound?
A: 20 mL/min/kg

Q: And the CLH [7]?
A: 13 mL/min/kg

Q: With Cn1nnc2ccc(C(=O)NC3CN(c4cc(Cl)ncc4Cl)C3)cc21 as the compound, how does the fraction unbound [1] read?
A: 0.024

Q: What about the fraction unbound [2] of the same compound?
A: 0.132

Q: And the fraction unbound [3]?
A: 0.053

Q: What about the Kp [4] of the same compound?
A: < 0.05

Q: And the Kp uu [5]?
A: < 0.11

Q: What about the CLH [6] of the same compound?
A: 8.7 mL/min/kg

Q: And the CLH [7]?
A: 21 mL/min/kg

Q: Which EC50 ([8]; cho) does the source give for Cc1c2cc(F)c(C(=O)NC3CN(c4cc(Cl)ncc4Cl)C3)cc2nn1C here?
A: Not Active

Q: With Cn1nc2ccc(C(=O)NC3CN(c4cc(Cl)ncc4Cl)C3)cc2c1C1CC1 as the compound, how does the EC50 ([8]; cho) read?
A: Not Active

Q: For CCn1nc2ccc(C(=O)NC3CN(c4cc(Cl)ncc4Cl)C3)cc2c1C, which EC50 ([8]; cho) is on record?
A: Not Active

Q: Which EC50 ([8]; read-out: EC50) does the source give for COc1cc(N2CC(NC(=O)c3ccc4nnc(C)n4c3)C2)c(Cl)cn1 here?
A: > 10 µM

Q: With COc1cc(N2CC(NC(=O)c3cn4c(C)c(C)nc4cn3)C2)c(Cl)cn1 as the compound, how does the EC50 [9] read?
A: 295 nM

Q: What about the CLint scaled [10] of the same compound?
A: 83 mL/min/kg

Q: What about the CLint scaled [11] of the same compound?
A: 25 mL/min/kg

Q: What about the fraction unbound [1] of the same compound?
A: 0.017

Q: And the fraction unbound [2]?
A: 0.045

Q: What about the fraction unbound [3] of the same compound?
A: 0.021

Q: And the Kp [4]?
A: < 1.08

Q: And the Kp uu [5]?
A: < 1.33

Q: With COc1cc(N2CC(NC(=O)c3ccc4snc(C)c4c3)C2)c(Cl)cn1 as the compound, how does the EC50 ([8]; cho) read?
A: Not Active

Q: Which EC50 [9] does the source give for Cc1c2cc(C(=O)NC3CN(c4cc(Cl)ncc4Cl)C3)ncc2nn1C here?
A: 331 nM

Q: What about the CLint scaled [10] of the same compound?
A: 59 mL/min/kg

Q: What about the CLint scaled [11] of the same compound?
A: 26 mL/min/kg

Q: What about the fraction unbound [1] of the same compound?
A: 0.022

Q: What about the fraction unbound [2] of the same compound?
A: 0.014

Q: What about the fraction unbound [3] of the same compound?
A: 0.03

Q: What about the Kp [4] of the same compound?
A: 0.3

Q: What about the Kp uu [5] of the same compound?
A: 0.41

Q: For Cc1nc2ccc(C(=O)NC3CN(c4cc(Cl)ncc4Cl)C3)cn2c1C, which EC50 [9] is on record?
A: 433 nM

Q: And the CLint scaled [10]?
A: 130 mL/min/kg

Q: And the CLint scaled [11]?
A: 39 mL/min/kg

Q: And the fraction unbound [1]?
A: 0.013

Q: And the fraction unbound [2]?
A: 0.03

Q: What about the fraction unbound [3] of the same compound?
A: 0.027

Q: And the Kp [4]?
A: 0.1

Q: And the Kp uu [5]?
A: 0.21

Q: For Cn1c(C(F)(F)F)nc2ccc(C(=O)NC3CN(c4cc(Cl)ncc4Cl)C3)cc21, which EC50 [9] is on record?
A: 378 nM

Q: Which EC50 ([8]; cho) does the source give for Cc1c2nc(C(=O)NC3CN(c4cc(Cl)ncc4Cl)C3)ccc2nn1C here?
A: Not Active

Q: With COc1cc(N2CC(NC(=O)c3cc4c(C)n(C)nc4cn3)C2)c(Cl)cn1 as the compound, how does the EC50 [9] read?
A: 339 nM

Q: And the CLint scaled [10]?
A: 33 mL/min/kg

Q: And the CLint scaled [11]?
A: 28 mL/min/kg

Q: And the fraction unbound [1]?
A: 0.022

Q: What about the fraction unbound [2] of the same compound?
A: 0.017

Q: What about the fraction unbound [3] of the same compound?
A: 0.032

Q: And the Kp [4]?
A: 0.67

Q: What about the Kp uu [5] of the same compound?
A: 0.97

Q: For Cn1nc2ccc(C(=O)NC3CN(c4cc(Cl)ncc4Cl)C3)cc2c1C(F)F, which EC50 ([8]; cho) is on record?
A: Not Active

Q: Which EC50 ([8]; cho) does the source give for Cc1noc2ccc(C(=O)NC3CN(c4cc(Cl)ncc4Cl)C3)cc12 here?
A: Not Active

Q: With COc1cc(N2CC(NC(=O)c3ccc4onc(C)c4c3)C2)c(Cl)cn1 as the compound, how does the EC50 ([8]; cho) read?
A: Not Active

Q: For COc1cc(N2CC(NC(=O)c3ccc4c(c3)c(C)nn4C)C2)c(Cl)cn1, which EC50 ([8]; cho) is on record?
A: Not Active

Q: Which EC50 ([8]; cho) does the source give for COc1cc(N2CC(NC(=O)c3cc4nn(C)c(C)c4cc3F)C2)c(Cl)cn1 here?
A: Not Active

Q: With Cc1nnc2ccc(C(=O)NC3CN(c4cc(Cl)ncc4Cl)C3)cn12 as the compound, how does the EC50 ([8]; read-out: EC50) read?
A: > 10 µM

Q: For Cn1nc2ccc(C(=O)NC3CN(c4cc(Cl)ncc4Cl)C3)cc2c1C(F)(F)F, which EC50 ([8]; cho) is on record?
A: Not Active

Q: For COc1cc(N2CC(NC(=O)c3ccc4sc(C)nc4c3)C2)c(Cl)cn1, which EC50 ([8]; cho) is on record?
A: Not Active

Q: Which EC50 ([8]; cho) does the source give for COc1cc(N2CC(NC(=O)c3ccc4nn(C)c(C)c4n3)C2)c(Cl)cn1 here?
A: Not Active

Q: For Cc1nc2ccc(C(=O)NC3CN(c4cc(Cl)ncc4Cl)C3)nn2c1C, which EC50 ([8]; cho) is on record?
A: Not Active

Q: For COc1cc(N2CC(NC(=O)c3ccc4nc(C)c(C)n4n3)C2)c(Cl)cn1, which EC50 ([8]; cho) is on record?
A: Not Active

Q: With Cc1nsc2ccc(C(=O)NC3CN(c4cc(Cl)ncc4Cl)C3)cc12 as the compound, how does the EC50 ([8]; cho) read?
A: Not Active

Q: Which CLint scaled [10] does the source give for Cc1nn(C)c2cnc(C(=O)NC3CN(c4cc(Cl)ncc4Cl)C3)cc12 here?
A: 85 mL/min/kg

Q: What about the CLint scaled [11] of the same compound?
A: 28 mL/min/kg

Q: What about the fraction unbound [1] of the same compound?
A: 0.011

Q: And the fraction unbound [2]?
A: 0.039

Q: And the fraction unbound [3]?
A: 0.021

Q: What about the Kp [4] of the same compound?
A: < 0.24

Q: What about the Kp uu [5] of the same compound?
A: < 0.45

Q: With Cc1nc2cnc(C(=O)NC3CN(c4cc(Cl)ncc4Cl)C3)cn2c1C as the compound, how does the EC50 [9] read?
A: 233 nM

Q: And the CLint scaled [10]?
A: 96 mL/min/kg

Q: And the CLint scaled [11]?
A: 33 mL/min/kg

Q: And the fraction unbound [1]?
A: 0.009

Q: What about the fraction unbound [2] of the same compound?
A: 0.04

Q: What about the fraction unbound [3] of the same compound?
A: 0.034

Q: What about the Kp [4] of the same compound?
A: 0.29

Q: And the Kp uu [5]?
A: 1.09
